Assay results from patent publication US12624019B2, “Indazole derivative, and preparation method therefor and use thereof” (Leadingtac Pharmaceutical (Shaoxing) Co., Ltd., priority 2020, dated 2026).

Columns and labels:
[1] = target: T1, IRAK4 kinase protein in THP-1 cells (Homo sapiens, UniProt Q9NWZ3); assay: Degradation of IRAK4 in THP-1 cells by Western Blot; assay type: cell-based; settings: 24 hours; for Dmax / DC50: IRAK4 degradation in THP-1 cells; for Dmax: read-out: WB Dmax; for WB D(%) (300 nM) / WB D(%) (1000 nM): degradation percentage of IRAK4 in THP-1 cells; for WB D(%) (300 nM): compound 300 nM; for WB D(%) (1000 nM): compound 1000 nM; for DC50: read-out: WB DC50
T1 construct: endogenous in cells; host or cells: THP-1 cells
T1 sequence (Q9NWZ3 1-460): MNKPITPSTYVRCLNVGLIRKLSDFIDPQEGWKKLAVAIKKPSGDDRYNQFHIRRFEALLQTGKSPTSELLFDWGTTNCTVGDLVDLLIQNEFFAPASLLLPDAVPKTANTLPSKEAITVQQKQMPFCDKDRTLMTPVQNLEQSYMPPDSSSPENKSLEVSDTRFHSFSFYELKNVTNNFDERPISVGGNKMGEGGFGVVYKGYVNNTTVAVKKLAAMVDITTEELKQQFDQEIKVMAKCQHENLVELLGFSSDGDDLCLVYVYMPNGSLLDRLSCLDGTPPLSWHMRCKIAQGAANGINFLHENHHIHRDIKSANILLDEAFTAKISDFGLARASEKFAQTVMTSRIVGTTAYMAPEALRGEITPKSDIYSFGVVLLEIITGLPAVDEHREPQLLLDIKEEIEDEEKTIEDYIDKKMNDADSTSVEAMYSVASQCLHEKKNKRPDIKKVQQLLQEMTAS
Experimental: Each well of the 24-well cell culture plate was inoculated with 0.95 mL THP-1 cells (stem cell bank of Chinese academy of sciences) with a cell density of 5×10^5 cells/well. The cell plate was placed in a 5% carbon dioxide incubator and cultured overnight at 37° C., then 50 μL compound in dimethyl sulfoxide was added. The final concentration of the compound was in the range of 1-3000 nM. After continuous cultivation for 24 hours, the cells were collected into a 1.5 mL centrifuge tube, centrifuged at 1000 rpm and 4° C. for 5 minutes. Cell precipitation was washed twice with 1×DPBS, resuspended cells were lysed with 200 μL lysate (cell lysate was Western and IP cell lysate (Beyotime), supplemented with 1 mM mixture of phenylmethylsulfonyl fluoride and protease inhibitor (Beyotime)), left on ice for 30 minutes, then centrifuged at 14000 g at 4° C. for 10 minutes, and the supernatant was taken to detect IRAK4 protein level by Western blot.
The total protein concentration in the supernatant of cell lysis was determined by BCA protein quantitative kit (Tiangen). According to the concentration of total protein detected by BCA, the supernatant was adjusted to […] with PBS and 5×SDS-PAGE protein loading buffer (Beyotime), bathed in water at 100° C. for 10 minutes, then placed in ice bath for 5 minutes, centrifuged at 14000 g and 4° C. for 5 minutes, and then collected as WB loading sample. Prefabricated glue (KeyGEN) was used for protein electrophoresis with a loading amount of 10 μL (total protein 2 μg). After Tris-MOPS-SDS electrophoresis solution (Adamas), 120V constant pressure electrophoresis was performed. After electrophoresis, the protein on the adhesive strip was transferred to PVDF membrane with a constant current of […] for 50 minutes. After the membrane was transferred, the membrane was added in 1×QuickBlock blocking buffer (Beyotime) and incubated for 30 minutes at room temperature. After blocking, PVDF membranes were incubated with IRAK4 primary antibody (Abcam) overnight at 4°, the membranes were washed with TBST buffer (2.4 g Tris, 8.8 g NaCl, 1.5 mL Tween 20, pH adjusted to 7.4, constant volume to 1 L) for 30 minutes, incubated with secondary antibody (Abcam) for 2 hours at room temperature, finally incubated with Clarity Western ECL Substrate (BIO-RAD) for 5 minutes for luminescence development, chemiluminescence imaging system (Clinx, chemiScope 6200 Touch) was used for development and protein mapping photography. The protein map was analyzed by Clinx chemiluminescence analysis software for grayscale values. Using the formula: grayscale correction value=(target protein grayscale value/corresponding internal reference grayscale value)×[…], the grayscale correction value of each sample was calculated. The degradation rate was calculated by comparing with the grayscale correction value of the control group. Furthermore, DC50 and Dmax values of the compound were obtained by the nonlinear curve fitting with the logarithmic concentration-inhibition rate by GraphPad Prism 7.

IRAK4 kinase = target: T2, IRAK4 kinase (Homo sapiens, UniProt Q9NWZ3); assay: IRAK4 kinase activity test (KinEASE-STK HTRF kit); assay type: biochemical; settings: IRAK4 kinase inhibition, 7 μM ATP, 37° C. 120 min
T2 sequence (Q9NWZ3 1-460): T1 sequence (Q9NWZ3 1-460)
Experimental: KinEASE-STK Si serine/threonine kinase kit (Cisbio) was used to detect the inhibitory effect of the compound on IRAK4 kinase activity. The specific method was: the compound was dissolved in dimethyl sulfoxide, and then it was diluted with the buffer solution of the kit by equal gradient to make the final concentration range of the tested compound in the reaction system 10000 nM-0.038 nM, then 2.5 nM kinase, 1 μM biotinylated polypeptide substrate and 7 μM adenosine triphosphate (ATP) were added in sequence and incubated at 37° C. for 120 min. Subsequently, anti-phosphorylated serine/threonine antibody coupled with europium element compound and modified XL665 streptavidin were added to the reaction system to terminate the reaction. After incubating at room temperature for 1 h, the fluorescence intensity of each well at the emission wavelength of 620 nm and 665 nm and the excitation wavelength of 337 nm was determined in HTRF mode on the microplate reader EnVision (PerkinElmer), the ratio value was calculated using the formula Ratio=(665 nm/620 nm)×10^4. By comparing with the fluorescence intensity ratio of the control group, the inhibition rate of the compound at each concentration was calculated, and then the IC50 value of the compound was obtained by fitting the nonlinear curve with the logarithmic concentration-inhibition rate by GraphPad Prism 7.

[2] = Pharmacokinetic study in mice; assay type: in vivo, SD mice; settings: for AUC(0-t) / bioavailability / Cmax: male, SD, mouse, plasma; for bioavailability: gavage 100 mg/kg vs intravenous 1 mg/kg
Experimental: The following experimental scheme was used to study the pharmacokinetic behavior of the compound of the present invention in mice and evaluate its pharmacokinetic characteristics.
Experimental scheme: 3 healthy SD mice, male, weighing […], were given 100 mg/kg compound by gavage with a volume of 10 mL/kg, prepared with […] (w/v). Before the test, they were fasted for 12 hours and freely drank water. Food was uniformly consumed 4 h after administration.
Three healthy SD mice, male, weighing […], were given 1 mg/kg compound intravenously with a volume of 5 mL/kg, prepared with 5% DMSO/15% solutol %80% PBS (w/v). Before the test, they were fasted for 12 hours and freely drank water. Food was uniformly consumed 4 h after administration.
0.1 mL of venous blood was taken through the submaxillary venous plexus of mice at 0.08 h, 0.25 h, 0.5 h, 1 h, 2 h, 4 h, 8 h, 24 h after gavage administration and 0.08 h, 0.25 h, 0.5 h, 1 h, 2 h, 4 h, 8 h, 24 h after intravenous administration, placed in a heparin test tube, centrifuged at 11000 rpm for 5 min, and plasma was separated, the concentration of compounds in plasma was determined by liquid chromatography-tandem mass spectrometry.

[3] = po, gavage administration 100 mg/kg

Dmax [1] [%] | WB D(%) (300 nM) [1] | WB D(%) (1000 nM) [1] | DC50 [1] [nM] | IC50 (IRAK4 kinase) [nM] | CL_pred ([2]; intravenous injection 1 mg/kg) [L/h/kg] | Vss_pred ([2]; intravenous injection 1 mg/kg) [L/kg] | AUC(0-t) ([2]; intravenous injection 1 mg/kg) [ng·h/mL] | bioavailability ([2]; po) [%] | AUC(0-t) [2, 3] [ng·h/mL] | Cmax [2, 3] [ng/mL] | SMILES
73.9 | 73.9 | 65.1 | – | – | – | – | – | – | – | – | COc1cc2nn(C3CCN(CCOCCOc4ccc5c(c4)C(=O)N(C4CCC(=O)NC4=O)C5=O)CC3)cc2cc1NC(=O)c1cccc(C(F)(F)F)n1 (stereo not drawn) [Control group 1, N-(2-(1-(2-(2-((2-(2,6-dioxopiperidin-3-yl)-1,3-dioxoisoindolin-5-yl)oxy)ethoxy)ethyl)piperidin-4-yl)-6-methoxy-2H-indazol-5-yl)-6-(trifluoromethyl) pyridinecarboxamide, reference compound]
98.8 | 99.4 | 99.8 | 25.1 | 48.6 | – | – | – | – | – | – | COc1cc2nn(C3CCN(CCC4CCN(c5ccc6c(c5)C(=O)N(C5CCC(=O)NC5=O)C6=O)CC4)CC3)cc2cc1NC(=O)c1cccc(C(F)(F)F)n1 (stereo not drawn) [Example 1, N-(2-(1-(2-(1-(2-(2,6-dioxopiperidin-3-yl)-1,3-dioxoisoindolin-5-yl)piperidin-4-yl)ethyl)piperidin-4-yl)-6-methoxy-2H-indazol-5-yl)-6-(trifluoromethyl) pyridinecarboxamide]
90.5 | 90.5 | 86.5 | 15.7 | 92.7 | 0.5 | 3.3 | 1920 | 22.3 | 22400 | 1230 | COc1cc2nn(C3CCN(CC4CCN(c5ccc6c(c5)C(=O)N(C5CCC(=O)NC5=O)C6=O)CC4)CC3)cc2cc1NC(=O)c1cccc(C(F)(F)F)n1 (stereo not drawn) [Example 2, N-(2-(1-((1-(2-(2,6-dioxopiperidin-3-yl)-1,3-dioxoisoindolin-5-yl)piperidin-4-yl)methyl)piperidin-4-yl)-6-methoxy-2H-indazol-5-yl)-6-(trifluoromethyl) pyridinecarboxamide]
97.7 | 96.7 | 96.4 | 9.3 | 56.7 | – | – | – | – | – | – | COc1cc2nn(C3CCN(CCN4CCN(c5ccc6c(c5)C(=O)N(C5CCC(=O)NC5=O)C6=O)CC4)CC3)cc2cc1NC(=O)c1cccc(C(F)(F)F)n1 (stereo not drawn) [Example 3, N-(2-(1-(2-(4-(2-(2,6-dioxopiperidin-3-yl)-1,3-dioxoisoindolin-5-yl)piperazin-1-yl)ethyl)piperidin-4-yl)-6-methoxy-2H-indazol-5-yl)-6-(trifluoromethyl) pyridinecarboxamide]
80.2 | 82.9 | 79.6 | 10.6 | 48 | 0.3 | 2.2 | 3110 | 13.4 | 41600 | 3260 | CC(C)(O)c1cc2nn(C3CCN(CC4CCN(c5ccc6c(c5)C(=O)N(C5CCC(=O)NC5=O)C6=O)CC4)CC3)cc2cc1NC(=O)c1cccc(C(F)(F)F)n1 (stereo not drawn) [Example 7, N-(2-(1-((1-(2-(2,6-dioxopiperidin-3-yl)-1,3-dioxoisoindolin-5-yl)piperidin-4-yl)methyl)piperidin-4-yl)-6-(2-hydroxyprop-2-yl)-2H-indazol-5-yl)-6-(trifluoromethyl) pyridinecarboxamide]
79.1 | 81.1 | 74.4 | 12.5 | 32.7 | – | – | – | – | – | – | CC(C)(O)c1cc2nn(C3CCN(CC(C)(C)N4CCN(c5ccc6c(c5)C(=O)N(C5CCC(=O)NC5=O)C6=O)CC4)CC3)cc2cc1NC(=O)c1cccc(C(F)(F)F)n1 (stereo not drawn) [Example 9]
99.8 | 97.4 | 97.9 | 18.3 | 60.9 | – | – | – | – | – | – | CC(C)(O)c1cc2nn(C3CCN(CCC4CCC5(CC4)CCN(c4ccc6c(c4)C(=O)N(C4CCC(=O)NC4=O)C6=O)CC5)CC3)cc2cc1NC(=O)c1cccc(C(F)(F)F)n1 (stereo not drawn) [Example 12, N-(2-(1-(2-(3-(2-(2,6-dioxopiperidin-3-yl)-1,3-dioxoisoindolin-5-yl)-3-azaspiro[5.5]undec-9-yl)ethyl)piperidin-4-yl)-6-(2-hydroxyprop-2-yl)-2H-indazol-5-yl)-6-(trifluoromethyl) pyridinecarboxamide]
